Laboratory results: patent US20240109934A1, “ANTIBIOTICS WITH IMPROVED DRUG RESISTANCE PROFILE” (priority 2021, published 2024)
Where two headings read alike, the source gives them in different places.

Tests used:
[1] = cited from earlier work
[2] = tested on: clinical isolates of S. aureus; details: cited from earlier work
[3] = tested on: human foreskin fibroblasts (HFF-1); assay: Cell viability, Alamar Blue assay; format: cell-based; details: 72 h incubation, error SEM n = 2, listed as FA(1), read-out: IC50, Mammalian Toxicity in HFF-1
Protocol: Cell Culture. HFF-1 cells were obtained from ATCC. HFF-1 cells were grown in DMEM with 15% fetal bovine serum (Gemini Benchmark, Cat #100-106), 100 U/mL penicillin, and 100 μg/mL streptomycin. All cells were cultured at 37° C. in a 5% CO2 environment. Media was prepared by the University of Illinois School of Chemical Sciences Cell Media Facility.
Cell Viability. Cells were harvested, seeded in a 96 well-plate and allowed to adhere. Cells were treated with investigational compounds in DMSO (1% final concentration). Cells were incubated for 72 h before viability was assessed by the Alamar Blue Assay. Raptinal ([…]) was used as a dead control.

S. aureus 29213 = assay: MIC shift with 50% human serum; format: cell-based; details: S. aureus 29213, 50% human serum vs none
Protocol: Antimicrobial Susceptibility Tests. Susceptibility testing was performed in biological triplicate, using the micro-dilution broth method as outlined by the Clinical and Laboratory Standards Institute. […] Human serum (Ultrafiltrate, unspecified gender, 30K Dalton membrane filtered) was purchased from BioIVT (Hicksville, NY).

SMILES | Half-life in humans ([1]; in vivo) [h] | Cmax (drug plasma level) ([1]; patients, front-loading regimen 3 g first day, 1.2 g daily thereafter) | S. aureus strains susceptible ([2]; United States, analysis conducted in 2011) [%] | MIC range ([2]; staphylococcal clinical isolates that carry the fusC gene) [µg/mL] | MIC range ([2]; strains that possess the fusB gene) [µg/mL] | IC50 [3] [µM] | Fold Change Increase in MIC with 50% Human Serum (S. aureus 29213) [X]
CC(=O)O[C@H]1C[C@@]2(C)[C@@H](C[C@@H](O)[C@H]3[C@@]4(C)CC[C@@H](O)[C@@H](C)[C@@H]4CC[C@@]32C)/C1=C(\CCC=C(C)C)C(=O)O [FA, Fusidic acid] | 10 to 14 | greater than 130 μg/mL | 99.7 | 2 to 64 | 4 to 1024 | 146 ± 11 | –
CC(=O)O[C@H]1C[C@@]2(C)[C@@H](C[C@@H](O)[C@H]3[C@@]4(C)CC[C@@H](O)[C@@H](C)[C@@H]4CC[C@@]32C)/C1=C(\CCC=C1CCCC1)C(=O)O [FA-CP, (Z)-2-((3R,4S,5S,8S,9S,10S,11R,13R,14S,16S)-16-acetoxy-3,11-dihydroxy-4,8,10,14-tetramethylhexadecahydro-17H-cyclopenta[a]phenanthren-17-ylidene)-5-cyclopentylidenepentanoic acid] | – | – | – | – | – | – | 8
